# Laboratory results reported in ChEMBL document CHEMBL3351524, “Toward fluorescent probes for G-protein-coupled receptors (GPCRs)” (J Med Chem, 2014).
# Starred links: 1 amine or outer side, 2 acyl side, 3 side chain; linkers in the order of their positions; H or OH if unused. Non-standard residues stand in square brackets, D forms with d. Residues, ends and D or L forms follow the SMILES beside them. ξ: configuration not given here. *: point of attachment. X1 = O=C(O)C[C@@H](C(=O)[*:2])N(c1ccc([N+](=O)[O-])c2nonc12)[*:1]; NBD = O=[N+]([O-])c1ccc(*)c2nonc12; Nle = CCCC[C@H](N)C(=O)O; ξDab = NCCC(N)C(=O)O; Bz = O=C(c1ccccc1)*
# Key:
# [1] = molecular target: C-X-C chemokine receptor type 4 (Homo sapiens, UniProt P61073); test: Displacement of [125I]SDF1 from CXCR4 (unknown origin) expressed in CHO cells; type: cell-based
# C-X-C chemokine receptor type 4, sequence (P61073 whole entry): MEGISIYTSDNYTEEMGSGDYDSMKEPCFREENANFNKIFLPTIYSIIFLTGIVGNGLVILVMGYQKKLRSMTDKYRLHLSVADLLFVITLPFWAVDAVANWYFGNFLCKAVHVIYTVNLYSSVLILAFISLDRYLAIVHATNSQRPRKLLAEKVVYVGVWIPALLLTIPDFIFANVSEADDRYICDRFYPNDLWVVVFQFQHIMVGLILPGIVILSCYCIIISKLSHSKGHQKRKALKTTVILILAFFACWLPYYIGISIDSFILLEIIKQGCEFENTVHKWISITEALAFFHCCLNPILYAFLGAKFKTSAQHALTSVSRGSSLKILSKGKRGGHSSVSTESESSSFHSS
# Substance-K receptor = molecular target: T1, Substance-K receptor (Homo sapiens, UniProt P21452); test: Displacement of [3H]GR100679 from NK2 receptor (unknown origin) expressed in CHO/T cells; type: cell-based
# T1 sequence (P21452 whole entry): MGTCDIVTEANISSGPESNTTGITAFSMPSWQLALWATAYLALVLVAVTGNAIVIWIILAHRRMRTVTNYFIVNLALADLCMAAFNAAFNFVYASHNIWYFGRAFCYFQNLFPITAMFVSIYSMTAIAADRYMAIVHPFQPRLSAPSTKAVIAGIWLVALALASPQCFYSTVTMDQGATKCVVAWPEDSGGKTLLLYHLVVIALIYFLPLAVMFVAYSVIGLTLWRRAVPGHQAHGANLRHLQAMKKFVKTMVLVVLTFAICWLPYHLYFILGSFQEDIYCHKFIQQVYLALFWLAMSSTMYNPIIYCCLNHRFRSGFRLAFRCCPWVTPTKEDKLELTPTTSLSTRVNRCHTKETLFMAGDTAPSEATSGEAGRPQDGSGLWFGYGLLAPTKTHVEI
Compound,IC50 [1],Ki (Substance-K receptor)
CC(=O)N[C@@H](CCCNC(=N)N)C(=O)N[C@@H](CCCNC(=N)N)C(=O)N[C@@H](Cc1cccc2ccccc12)C(=O)N[C@H]1CSSC[C@@H](C(=O)N[C@@H](CCCNC(=N)N)C(N)=O)NC(=O)[C@H](CCCNC(N)=O)NC(=O)[C@H](CCCNC(=N)N)NC(=O)[C@H](Cc2ccc(O)cc2)NC(=O)[C@@H]2CCCN2C(=O)[C@@H](CCCCN)NC(=O)[C@H](CCCNC(=N)N)NC(=O)[C@H](CCCNC(N)=O)NC(=O)[C@H](Cc2ccc(O)cc2)NC1=O,5.2 nM,
CC(=O)N[C@@H](CCCNC(=N)N)C(=O)N[C@@H](CCCNC(=N)N)C(=O)N[C@@H](Cc1cccc2ccccc12)C(=O)N[C@H]1CSSC[C@@H](C(=O)N[C@@H](CCCNC(=N)N)C(N)=O)NC(=O)[C@H](CCCNC(N)=O)NC(=O)[C@H](CCCNC(=N)N)NC(=O)[C@H](Cc2ccc(O)cc2)NC(=O)[C@@H]2CCCN2C(=O)[C@@H](CCC(=O)O)NC(=O)[C@H](CCCNC(=N)N)NC(=O)[C@H](CCCNC(N)=O)NC(=O)[C@H](Cc2ccc(O)cc2)NC1=O,6.7 nM,
CCCC[C@H](NC(=O)[C@@H]1CCCN1C(=O)[C@H]1CCCN1C(=O)[C@H](Cc1ccccc1)NC(=O)[C@@H](Cc1c[nH]c2ccccc12)NC(=O)[C@H](C)NC(=O)C(CCNc1ccc([N+](=O)[O-])c2nonc12)NC(=O)c1ccccc1)C(N)=O (some centres undefined),,1.35 nM
CCCC[C@H](NC(=O)[C@@H]1CCCN1C(=O)[C@H]1CCCN1C(=O)[C@H](Cc1ccccc1)NC(=O)[C@@H](Cc1c[nH]c2ccccc12)NC(=O)[C@H](C)NC(=O)[C@H](CCCNc1ccc([N+](=O)[O-])c2nonc12)NC(=O)c1ccccc1)C(N)=O,,1.45 nM
CCCC[C@H](NC(=O)[C@@H]1CCCN1C(=O)[C@H]1CCCN1C(=O)[C@H](Cc1ccccc1)NC(=O)[C@@H](Cc1c[nH]c2ccccc12)NC(=O)[C@H](C)NC(=O)[C@H](CCCCNCC(=O)Nc1ccc([N+](=O)[O-])c2nonc12)NC(=O)c1ccccc1)C(N)=O,,1.58 nM
CSCC[C@H](NC(=O)[C@H](CC(C)C)NC(=O)CNC(=O)[C@@H](NC(=O)[C@H](Cc1ccccc1)NC(=O)[C@H](CO)NC(=O)[C@H](CC(=O)O)NC(=O)[C@@H](NC(=O)[C@H](CCCCN)NC(=O)[C@H](Cc1cnc[nH]1)Nc1ccc([N+](=O)[O-])c2nonc12)[C@@H](C)O)C(C)C)C(N)=O,,5.89 nM
CCCC[C@H](NC(=O)[C@H](CC(C)C)NC(=O)CNC(=O)C(CCNc1ccc([N+](=O)[O-])c2nonc12)NC(=O)[C@H](Cc1ccccc1)NC(=O)[C@H](CO)NC(=O)[C@H](CC(=O)O)NC(C)=O)C(N)=O (some centres undefined) (Ac-DSF[ξDab](NBD)GL[Nle]-NH2),,1950 nM
CCCC[C@H](NC(=O)[C@@H]1CCCN1C(=O)[C@H]1CCCN1C(=O)[C@H](Cc1ccccc1)NC(=O)[C@@H](Cc1c[nH]c2ccccc12)NC(=O)[C@H](C)NC(=O)[C@H](C)NC(=O)c1ccccc1)C(N)=O (Bz-AA[dW]F[dP]P[Nle]-NH2),,0.155 nM
CCCC[C@H](NC(=O)[C@H](CC(C)C)NC(=O)CNC(=O)[C@@H](NC(=O)[C@H](Cc1ccccc1)NC(=O)[C@H](CO)NC(=O)[C@H](CC(=O)O)Nc1ccc([N+](=O)[O-])c2nonc12)C(C)C)C(N)=O (H-[X1]SFVGL[Nle]-NH2),,8.32 nM
